Results from ChEMBL document CHEMBL4184157, “Phenoxypropanolamine derivatives as selective inhibitors of the 20S proteasome β1 and β5 subunits” (Bioorg Med Chem Lett, 2017).
The source made the active and inactive calls. No cut-off for these calls is given here.

What was measured:
[1] = Inhibition of chymotrypsin-like activity of rabbit erythrocyte 20S proteasome beta5 subunit using Suc-LLVY-AMC as substrate preincubated for 15 mins followed by substrate addition measured after 45 mins by fluorescence assay; design: species or system Oryctolagus cuniculus
[2] = Inhibition of caspase-like activity of rabbit erythrocyte 20S proteasome beta1 subunit using Z-LLE-betaNA as substrate preincubated for 15 mins followed by substrate addition measured after 45 mins by fluorescence assay; design: species or system Oryctolagus cuniculus
Oryctolagus cuniculus [3] = species: Oryctolagus cuniculus; assay: Inhibition of trypsin-like activity of rabbit erythrocyte 20S proteasome beta2 subunit at 100 uM using BocLRR-AMC as substrate preincubated for 5 mins followed by substrate addition measured after 45 mins by fluorescence assay
Oryctolagus cuniculus [4] = species: Oryctolagus cuniculus; assay: Inhibition of caspase-like activity of rabbit erythrocyte 20S proteasome beta1 subunit at 100 uM using Z-LLE-betaNA as substrate preincubated for 15 mins followed by substrate addition measured after 45 mins by fluorescence assay
Oryctolagus cuniculus [5] = species: Oryctolagus cuniculus; assay: Inhibition of chymotrypsin-like activity of rabbit erythrocyte 20S proteasome beta5 subunit at 100 uM using Suc-LLVY-AMC as substrate preincubated for 15 mins followed by substrate addition measured after 45 mins by fluorescence assay
[6] = target: T1, Calpain-1 catalytic subunit (Homo sapiens) (UniProt P07384); assay: Inhibition of human erythrocyte calpain 1 protease using Suc-LLVY-AMC as substrate by fluorescence assay
T1 sequence (whole entry): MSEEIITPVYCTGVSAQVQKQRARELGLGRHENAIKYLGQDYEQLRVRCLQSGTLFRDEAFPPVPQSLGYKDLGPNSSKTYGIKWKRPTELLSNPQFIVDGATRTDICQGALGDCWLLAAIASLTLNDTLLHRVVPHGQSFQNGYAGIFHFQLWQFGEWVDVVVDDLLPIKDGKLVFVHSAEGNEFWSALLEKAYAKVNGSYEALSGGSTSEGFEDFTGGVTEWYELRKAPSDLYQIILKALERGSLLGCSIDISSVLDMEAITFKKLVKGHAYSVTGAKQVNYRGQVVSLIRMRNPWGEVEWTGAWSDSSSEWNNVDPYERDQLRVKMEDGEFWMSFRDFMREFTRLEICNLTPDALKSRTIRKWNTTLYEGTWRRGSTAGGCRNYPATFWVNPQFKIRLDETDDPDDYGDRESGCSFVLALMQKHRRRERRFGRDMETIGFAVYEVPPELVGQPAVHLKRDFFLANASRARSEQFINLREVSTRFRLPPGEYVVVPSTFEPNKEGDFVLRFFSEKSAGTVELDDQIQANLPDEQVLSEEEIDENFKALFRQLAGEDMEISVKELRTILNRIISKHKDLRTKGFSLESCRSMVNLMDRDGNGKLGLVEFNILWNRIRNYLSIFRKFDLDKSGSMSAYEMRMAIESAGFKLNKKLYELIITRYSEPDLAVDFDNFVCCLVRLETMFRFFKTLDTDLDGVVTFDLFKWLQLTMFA

HeLa [7] = assay: Antiproliferative activity against human HeLa cells after 72 hrs by XTT assay; type: functional, cell-based
Rattus norvegicus [8] = assay: In vivo antiproliferative activity against Wistar rat bone marrow cells from femora assessed as inhibition of cell division measured by counting metaphase plates administered at 0.2 mg per rat, ip by light microscopic method; design: scale not given: the % may be the effect or the level left
Rattus norvegicus [9] = assay: In vivo antiproliferative activity against Wistar rat bone marrow cells from femora assessed as inhibition of cell division measured by counting metaphase plates administered at 2 mg per rat, ip by light microscopic method; design: scale not given: the % may be the effect or the level left
Rattus norvegicus [10] = assay: In vivo antiproliferative activity against ip dosed Wistar rat bone marrow cells from femora assessed as inhibition of cell division measured by counting metaphase plates by light microscopic method; type: functional, organism-based
HeLa [11] = assay: Cytotoxicity against human HeLa cells at 10 uM after 72 hrs by XTT assay; type: functional, cell-based
HeLa [12] = assay: Antiproliferative activity against human HeLa cells at 10 uM after 72 hrs by microscopic method; type: functional, cell-based
[13] = target: Cathepsin B (Homo sapiens) (UniProt P07858); assay: Inhibition of human hepatocyte cathepsin B protease using Z-RR-AMC as substrate by fluorescence assay
HeLa [14] = assay: Antiproliferative activity against human HeLa cells assessed as fragmented nuclei at 50 uM after 72 hrs by microscopic method; type: functional, cell-based

| Structure (SMILES) | IC50 [1] | IC50 [2] | inhibition (Oryctolagus cuniculus [3]) | inhibition (Oryctolagus cuniculus [4]) | further results |
| --- | --- | --- | --- | --- | --- |
| Cc1ccc(OCC(O)CNCC2(c3cccs3)CCCC2)cc1 (stereo not drawn) | 15.4 µM | 24.2 µM | 38% | – | – |
| OC(CNCC1(c2cccs2)CCOCC1)COc1ccccc1 (stereo not drawn) | – | – | 39% | 36% | inhibition (Oryctolagus cuniculus [5]): 31% |
| O=C(O)CSc1cc(NS(=O)(=O)c2cccs2)c2ccccc2c1O | 3 µM | – | – | – | – |
| OC(CNCC1(c2cccs2)CCCC1)COc1ccccc1 (stereo not drawn) | 19.3 µM | 66.5 µM | 41% | – | inhibition [6]: inactive; inhibition [13]: inactive |
| NCC1(c2cccs2)CCOCC1 | – | – | inactive | inactive | inhibition (Oryctolagus cuniculus [5]): inactive |
| NCC1(c2cccs2)CCCCC1 | – | – | inactive | inactive | inhibition (Oryctolagus cuniculus [5]): inactive |
| CC1(C)OC(=O)c2c1ccn(CCc1ccccc1)c2=O | – | 48 µM | – | – | – |
| OC(CNCC1(c2cccs2)CCCCC1)COc1ccccc1 (stereo not drawn) | 14.9 µM | 18.1 µM | inactive | – | – |

Now from value to molecule, other results behind:

| IC50 [1] | IC50 [2] | inhibition (Oryctolagus cuniculus [3]) | inhibition (Oryctolagus cuniculus [4]) | Structure (SMILES) | further results |
| --- | --- | --- | --- | --- | --- |
| 15.5 µM | 30 µM | 36% | – | Cc1ccc(OCC(O)CNCC2(c3cccs3)CCCCC2)cc1 (stereo not drawn) | – |
| 18 µM | 12.8 µM | inactive | – | OC(CNCC1(c2cccs2)CCCCC1)COc1ccc(Cl)cc1 (stereo not drawn) | – |
| 80 µM | – | 49% | inactive | Cc1ccc(OCC(O)CNCC2(c3cccs3)CCOCC2)cc1 (stereo not drawn) | – |
| 17.1 µM | 22 µM | 40% | – | COc1ccccc1OCC(O)CNCC1(c2cccs2)CCCCC1 (stereo not drawn) | – |
| 15.8 µM | 18 µM | 42% | – | OC(CNCC1(c2cccs2)CCCC1)COc1ccc(Cl)cc1 (stereo not drawn) | inhibition [6]: inactive; Activity (HeLa [7]): Dose-dependent effect; Activity (Rattus norvegicus [8]): 50%; Activity (Rattus norvegicus [9]): 75%; Activity (Rattus norvegicus [10]): Dose-dependent effect; Activity (HeLa [11]): inactive; Activity (HeLa [12]): inactive; inhibition [13]: inactive; Activity (HeLa [14]): Active |
| – | – | inactive | inactive | COc1ccccc1OCC(O)CNCC1(c2cccs2)CCOCC1 (stereo not drawn) | inhibition (Oryctolagus cuniculus [5]): inactive |
| 37.2 µM | 36 µM | 48% | – | COc1ccccc1OCC(O)CNCC1(c2cccs2)CCCC1 (stereo not drawn) | – |
| – | – | inactive | inactive | NCC1(c2cccs2)CCCC1 | inhibition (Oryctolagus cuniculus [5]): 26% |
| 40 µM | – | 53% | inactive | OC(CNCC1(c2cccs2)CCOCC1)COc1ccc(Cl)cc1 (stereo not drawn) | – |
